Patent US6110481A, “Controlled release device based on aqueous-organic partitioning in porous membranes” (Trustees of the Stevens Institute of Technology, priority 1994, dated 2000)

Assays:
[1] = Distribution coefficient of benzoic acid between decanol and water; format: physicochemical
From the text: Analytical solutions for non-coated, wetted fibers and for non-coated, non-wetted fibers were developed to predict the aqueous phase benzoic acid concentration as a function of time for nylon fibers as well as Celgard® X-20 […] and 400 μm I.D. fibers, both wetted and non-wetted. Predicted results were compared with experimental data (for wetted fibers only) in FIGS. 1, 2 and 3 for Celgard® X-20 240 μm I.D., Celgard® X-20 400 μm I.D. and Nylon 6 600 μm I.D. fibers, respectively. The hollow fiber dimensions and membrane porosities were supplied by the manufacturer. In the case of the silicone coated fibers, the coating thickness was estimated experimentally. The diffusivity of benzoic acid in decanol was estimated using the Wilke-Chang Equation. The diffusivity of benzoic acid in water was taken from Reid et al., Properties of Gases and Liquids, McGraw Hill Book Co., New York, 1977. […]
Aqueous phase benzoic acid concentration was analyzed by a Hewlett-Packard HPLC model 1090, using a Hypersil ODS C-18 reverse phase column. […] The distribution coefficient of benzoic acid between decanol and water was determined experimentally.

[2] = In vitro release from microporous hollow fibers into stirred water bath; format: physicochemical; conditions: 1 μm silicone-coated 240 μm Celgard fibers (with and without wax coating), octanol; experimental vs predicted for uncoated fibers
Method: Hollow fibers prepared as such may then be assembled in any fashion intended for controlled release purposes. Preliminary testing of the release kinetics of a selected agent is carried out by immersing a length of the hollow fiber with sealed ends in a stirred water bath and measuring the concentration of the agent in the water bath as it increased with time.
A coating on the outer surface of the fiber provides additional resistance to mass transfer. […] The controlled release of benzoic acid using silicone-coatedhollow fibers (with and without an additional wax coating) and octanol is shown in FIGS. 4A and 4B. For both Figures, the predicted results are based on a 240 μm uncoated fiber with the same membrane thickness, porosity and tortuosity. In FIG. 4A, a 240 μm Celgard® fiber was coated with a 1 μm silicone coating. In FIG. 4B, a 240 μm Celgard® fiber was coated with a 1 μm silicone coating, and an additional wax coating. In both experiments, the solvent was octanol and the diffusing species, benzoic acid.
Aqueous phase benzoic acid concentration was analyzed by a Hewlett-Packard HPLC model 1090, using a Hypersil ODS C-18 reverse phase column. A 40% acetonitrile -60% water (w/w) carrier and UV detector at 254 nm were used. The samples were injected manually into a […] sample loop. […] The distribution coefficient of benzoic acid between decanol and water was determined experimentally. […]

[3] = glassy hydrogel matrix, solvent activation system; cited from earlier work
[4] = from Reid et al., 1977, p. 576; cited from earlier work

SMILES	distribution coefficient (m), ratio of equilibrium solute concentration in organic solvent over that in water [1]	effect of fiber coating on time to approach steady state [2]	release kinetics [3]	diffusion coefficient in water [4]
O=C(O)c1ccccc1 [benzoic acid]	~50	increases the time required for the system to approach steady state	zero order release kinetics	1.2 × 10^-5 cm^2 /s
Cn1c(=O)c2[nH]cnc2n(C)c1=O [theophylline]	–	–	zero order release kinetics	–
